Measured values published in patent US9655982B2, “Formation and uses of europium complexes” (Wayne State University, priority 2010, dated 2017).
“And” between values parts separate entries of the source, which are not always exact repeats. Equal entries are not always repeated. “Also recorded” adds a separate entry of the source. Each block holds one compound with its values, some of them ahead of it.

Assay: Cyclic voltammetry: anodic peak potentials of aqueous Eu(II) cryptates vs ferrocene/ferrocenium (oxidative stability)
Type: physicochemical
Details: for Anodic peak potentials (Epa) with respect to ferrocene/ferrocenium (Fc/Fc+): aqueous MOPS 0.01 M pH 7.5, Et4NClO4 0.05 M, Ar, ambient temperature, scan rate 150 mV/s, mean ± standard error; for Increase in oxidative stability of Eu(II) compared to cryptand 3: difference in anodic peak potential, Eu(II) complex of the cryptand
From the text: To synthesize the diverse set of cryptands 2 and 4-6, a three-step procedure was devised that involved common intermediates 7, 9, and 11 (Scheme 1). Briefly, the synthesis involved the conversion of the appropriate ethylenediols or catechols to the corresponding ditosylates (7, 9, and 11) followed by ring closure with 1,4,10,13-tetraoxa-7,16-diazacyclooctadecane, 2,2′-(ethylenedioxy)bis(ethylamine) or 1,4,10,13-tetrathia-7,16-diazacyclooctadecane.
To synthesize the diverse set of cryptands 1-6, a three-step procedure was devised that involved common intermediates 7, 9, and 11 (Scheme 1). Briefly, the synthesis involved the conversion of the appropriate ethylenediols or catechols to the corresponding ditosylates (7, 9, and 11) followed by ring closure with 1,4,10,13-tetraoxa-7,16-diazacyclooctadecane, 2,2′-(ethylenedioxy)bis(ethylamine), or 1,4,10,13-tetrathia-7,16-diazacyclooctadecane. […] The resulting solution was placed in a standard three-electrode cell (glassy-carbon working electrode, Pt-wire auxiliary electrode, and Ag/AgCl (1.0 M KCl) reference electrode). The potential at the carbon electrode was held at −0.8 V (vs Ag/AgCl) while stirring to produce Eu^II in situ for metalation.
^1H NMR spectra were obtained using a Varian Unity 300 (300 MHz) spectrometer and a Mercury 400 (400 MHz) spectrometer, ^13C NMR spectra were obtained using a Varian Unity 300 (75 MHz) spectrometer and a Mercury 400 (101 MHz) spectrometer. ^19F NMR spectra were obtained using Varian Unity 300 (282 MHz) spectrometer. […] NMR data are assumed to be first order, and the apparent multiplicity is reported as “s”=singlet, “d”=doublet, “dd”=doublet of doublets, “t”=triplet, “td”=triplet of doublets, “q”=quartet, “m”=multiplet, or “brs”=broad singlet. Italicized elements are those that are responsible for the shifts. High-resolution electrospray ionization mass spectra (HRESIMS) were obtained on an electrospray time-of-flight high-resolution Waters Micromass LCT Premier XE mass spectrometer. Cyclic voltammetric analyses were performed using a WaveNow USB potentiostat (Pine Research Instrumentation). A standard three-electrode cell was used with a glassy-carbon working electrode, a Pt-wire auxiliary electrode, and a Ag/AgCl reference electrode (1.0 M KCl). All electrochemical experiments were performed under an Ar atmosphere at ambient temperature with Et4NClO4 (0.05 M) as the supporting electrolyte, an aqueous solution of 3-(N-morpholino)propanesulfonic acid (MOPS, 0.01 M, pH 7.5) as the solvent, and the ferrocene/ferrocinium (Fc/Fc+) redox couple as an internal standard. From the initial potential of the analysis (−1.5 V), the voltage was ramped to 0.75 V and back to −1.5 V at a scan rate of 150 mV/s. […] After each measurement, ferrocene (6.7 mM in acetonitrile) was added to the sample (0.13 mM ferrocene after addition) and the measurement was repeated to enable referencing to Fc/Fc+.
To an aqueous solution of 3-(N-morpholino)propanesulfonic acid (MOPS) (0.01 M, pH 7.5), Et4NClO4 (0.05 M), and Eu(NO3)3.5H2O (1.1 mM, 1 equiv) was added a solution of the desired cryptand (12 mM, 1.2 equiv) in acetonitrile, and the resulting mixture was sparged with Ar for 5 minutes. The potential of the resulting solution was held at −0.8 V (30 minutes per 0.01 mmol of Eu(NO3)3.5H2O) while stirring under constant sparging with Ar. Immediately after holding the potential at −0.8 V, cyclic voltammograms were obtained in the potential range of −1.5 to 0.75 V at a scan rate of 150 mV/s. After acquiring the voltammogram, ferrocene (6.7 mM in acetonitrile, 0.1 equiv) was added, and another cyclic voltammogram was obtained. These cyclic voltammetric experiments were repeated 3-6 times for each ligand.

Compound: Fc1ccc2c(c1)OCCN1CCOCCOCCN(CCOCCOCC1)CCO2 [4-Eu]
- Oxidative stability compared to hemoglobin (in words) (Fe(II) in hemoglobin, p=0.64, p=0.45): statistically identical; also recorded: not different
- Anodic peak potentials (Epa) with respect to ferrocene/ferrocenium (Fc/Fc+): −0.079 ± 0.007 V vs, Fc/Fc^+

Compound: c1ccc2c(c1)OCCN1CCSCCSCCN(CCO2)CCSCCSCC1 [6-Eu]
- Anodic peak potentials (Epa) with respect to ferrocene/ferrocenium (Fc/Fc+): −0.035 ± 0.010 V vs, Fc/Fc^+

Compound: O=[N+]([O-])[O-].O=[N+]([O-])[O-].O=[N+]([O-])[O-].[Eu+3] [Eu(NO3)3, reference compound]
- Anodic peak potentials (Epa) with respect to ferrocene/ferrocenium (Fc/Fc+): −0.701 ± 0.030 V vs, Fc/Fc^+

Compound: CC1(C)OCCN2CCOCCOCCN(CCOC1(C)C)CCOC(C)(C)C(C)(C)OCC2 [cryptand 2, 5,5,6,6,14,14,15,15-Octamethyl-4,7,13,16,21,24-hexaoxa-1,10-diazabicyclo[8.8.8]hexacosane]
- Oxidative stability compared to unmodified cryptand 1 (in words) (cyclic voltammetric data of Eu-containing solutions): increased oxidative stability

Compound: hemoglobin: Human hemoglobin from RayBiotech Inc.; Fe(II) oxidation used as biological comparison [reference compound]
- Anodic peak potentials (Epa) with respect to ferrocene/ferrocenium (Fc/Fc+): −0.070 ± 0.003 V vs, Fc/Fc^+

Other lines, results leading:

- Increase in oxidative stability of Eu(II) compared to cryptand 3: 133 mV and 129 mV
Compound: Fc1ccc2c(c1)OCCN1CCOCCOCCN(CCOCCOCC1)CCO2 [cryptand 4, 5,6-(4-Fluorobenzo)-4,7,13,16,21,24-hexaoxa-1,10-diazabicyclo[8.8.8]hexacos-5-ene]

- Anodic peak potential compared to mono-phenyl substituted cryptand 3 (in words) (p=0.76): no significant difference
Compound: c1ccc2c(c1)OCCN1CCOCCOCCN(CCO2)CCOc2ccccc2OCC1 [cryptand 5, 5,6,14,15-Dibenzo-4,7,13,16,21,24-hexaoxa-1,10-diazabicyclo[8.8.8]hexacosane]

- Oxidative potential more positive than hemoglobin (Fe^2+/3+) (cryptand with Eu(II)): 35 mV
- Oxidative potential more positive than the Eu aqua ion (cryptand with Eu(II)): 666 mV
- Increase in oxidative stability of Eu(II) compared to cryptand 3: 173 mV
Compound: c1ccc2c(c1)OCCN1CCSCCSCCN(CCO2)CCSCCSCC1 [cryptand 6, 5,6-Benzo-4,7-dioxa-13,16,21,24-tetrathia-1,10-diazabicyclo[8.8.8]hexacos-5-ene]
